# Measured values from ChEMBL document CHEMBL5375979, “Chemical, Biochemical, Cellular, and Physiological Characterization of Leucettinib-21, a Down Syndrome and Alzheimer's Disease Drug Candidate” (J Med Chem, 2023).
# Several values for one entry are separate records, joined by “and”; a condition that tells them apart may be missing. Identical values can stand only once.
# Experiments:
# [1] = target: Dual specificity protein kinase CLK1 (Homo sapiens, UniProt P49759)
# [2] = target: Dual specificity protein kinase CLK4 (Homo sapiens, UniProt Q9HAZ1)
# Dual specificity protein kinase CLK4, sequence (Q9HAZ1 whole entry): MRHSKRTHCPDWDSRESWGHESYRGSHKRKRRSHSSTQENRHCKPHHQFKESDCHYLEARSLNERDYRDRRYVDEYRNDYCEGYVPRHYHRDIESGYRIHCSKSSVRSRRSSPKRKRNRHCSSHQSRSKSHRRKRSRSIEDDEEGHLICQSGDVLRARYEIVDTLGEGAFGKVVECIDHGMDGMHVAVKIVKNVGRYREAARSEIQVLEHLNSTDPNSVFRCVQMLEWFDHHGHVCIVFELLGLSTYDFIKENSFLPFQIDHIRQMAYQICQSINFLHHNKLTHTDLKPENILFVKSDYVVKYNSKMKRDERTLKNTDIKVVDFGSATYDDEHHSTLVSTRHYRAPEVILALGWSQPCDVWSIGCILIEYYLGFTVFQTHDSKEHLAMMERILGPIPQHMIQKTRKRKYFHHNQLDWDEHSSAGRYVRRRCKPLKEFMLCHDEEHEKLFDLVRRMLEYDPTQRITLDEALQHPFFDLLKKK
# [3] = target: Dual specificity tyrosine-phosphorylation-regulated kinase 1A (Homo sapiens, UniProt Q13627)
# [4] = target: Dual specificity tyrosine-phosphorylation-regulated kinase 1B (Homo sapiens, UniProt Q9Y463)
# Dual specificity tyrosine-phosphorylation-regulated kinase 1B, sequence (Q9Y463 whole entry): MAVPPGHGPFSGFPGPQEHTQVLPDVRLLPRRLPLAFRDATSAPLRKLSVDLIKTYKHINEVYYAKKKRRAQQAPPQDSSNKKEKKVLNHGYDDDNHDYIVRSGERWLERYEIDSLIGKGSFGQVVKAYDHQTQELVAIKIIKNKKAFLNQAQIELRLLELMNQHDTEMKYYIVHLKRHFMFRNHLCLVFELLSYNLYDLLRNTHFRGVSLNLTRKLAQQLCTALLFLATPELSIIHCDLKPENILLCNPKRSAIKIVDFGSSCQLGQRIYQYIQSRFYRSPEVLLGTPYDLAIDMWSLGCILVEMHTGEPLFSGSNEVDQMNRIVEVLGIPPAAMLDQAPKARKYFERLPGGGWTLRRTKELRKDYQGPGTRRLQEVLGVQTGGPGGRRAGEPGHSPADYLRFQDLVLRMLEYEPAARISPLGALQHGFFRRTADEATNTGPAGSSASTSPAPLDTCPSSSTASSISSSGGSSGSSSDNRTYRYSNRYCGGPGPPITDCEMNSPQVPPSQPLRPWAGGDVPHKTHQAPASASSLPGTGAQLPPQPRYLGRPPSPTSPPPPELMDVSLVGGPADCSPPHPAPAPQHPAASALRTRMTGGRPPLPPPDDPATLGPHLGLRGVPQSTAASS
# [5] = target: Cyclin-dependent kinase 5 (Homo sapiens, UniProt Q00535)
# Cyclin-dependent kinase 5, sequence (Q00535 whole entry): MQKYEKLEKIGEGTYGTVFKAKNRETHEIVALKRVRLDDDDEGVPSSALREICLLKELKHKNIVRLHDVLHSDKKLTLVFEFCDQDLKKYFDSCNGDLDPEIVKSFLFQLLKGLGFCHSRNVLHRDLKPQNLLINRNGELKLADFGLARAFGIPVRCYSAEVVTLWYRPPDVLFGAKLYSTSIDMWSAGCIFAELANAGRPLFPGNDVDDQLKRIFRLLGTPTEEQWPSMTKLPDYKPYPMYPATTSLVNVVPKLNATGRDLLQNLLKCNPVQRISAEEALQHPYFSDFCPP
# [6] = target: Casein kinase I; assay type: protein assay, Homo sapiens
# [7] = target: Dual specificity protein kinase CLK3 (Homo sapiens, UniProt P49761)
# Dual specificity protein kinase CLK3, sequence (P49761 whole entry): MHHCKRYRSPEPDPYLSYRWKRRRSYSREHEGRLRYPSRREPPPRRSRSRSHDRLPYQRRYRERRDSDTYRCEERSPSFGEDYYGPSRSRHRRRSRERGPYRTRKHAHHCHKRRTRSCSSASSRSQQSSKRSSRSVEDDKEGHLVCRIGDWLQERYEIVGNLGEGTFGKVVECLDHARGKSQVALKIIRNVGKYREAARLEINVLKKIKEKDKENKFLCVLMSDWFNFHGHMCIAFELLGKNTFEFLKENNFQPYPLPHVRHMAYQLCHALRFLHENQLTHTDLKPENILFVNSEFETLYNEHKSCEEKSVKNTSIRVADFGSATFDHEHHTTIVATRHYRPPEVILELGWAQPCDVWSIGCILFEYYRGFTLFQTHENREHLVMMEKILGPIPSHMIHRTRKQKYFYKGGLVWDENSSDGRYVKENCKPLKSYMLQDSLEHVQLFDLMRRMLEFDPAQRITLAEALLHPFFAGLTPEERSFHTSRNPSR
# [8] = target: T1, Dual specificity tyrosine-phosphorylation-regulated kinase 2 (Homo sapiens, UniProt Q92630)
# T1 sequence (Q92630 whole entry): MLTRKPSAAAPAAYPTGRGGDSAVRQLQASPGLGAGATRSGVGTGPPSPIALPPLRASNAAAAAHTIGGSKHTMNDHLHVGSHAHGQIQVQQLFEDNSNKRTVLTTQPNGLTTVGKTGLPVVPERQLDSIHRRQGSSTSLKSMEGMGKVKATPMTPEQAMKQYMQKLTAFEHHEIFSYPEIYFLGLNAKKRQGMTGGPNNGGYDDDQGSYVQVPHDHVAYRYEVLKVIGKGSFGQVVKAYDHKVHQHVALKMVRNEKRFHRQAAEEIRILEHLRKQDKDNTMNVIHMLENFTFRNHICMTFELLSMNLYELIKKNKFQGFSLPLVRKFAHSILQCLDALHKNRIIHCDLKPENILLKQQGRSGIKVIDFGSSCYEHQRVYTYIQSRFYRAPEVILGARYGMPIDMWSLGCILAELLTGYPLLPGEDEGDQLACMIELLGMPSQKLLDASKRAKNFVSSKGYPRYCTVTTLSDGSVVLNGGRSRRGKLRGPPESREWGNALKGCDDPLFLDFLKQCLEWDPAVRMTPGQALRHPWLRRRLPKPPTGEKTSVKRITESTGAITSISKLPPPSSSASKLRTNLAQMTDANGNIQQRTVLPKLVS
# [9] = target: T2, Dual specificity tyrosine-phosphorylation-regulated kinase 4 (Homo sapiens, UniProt Q9NR20)
# T2 sequence (Q9NR20 whole entry): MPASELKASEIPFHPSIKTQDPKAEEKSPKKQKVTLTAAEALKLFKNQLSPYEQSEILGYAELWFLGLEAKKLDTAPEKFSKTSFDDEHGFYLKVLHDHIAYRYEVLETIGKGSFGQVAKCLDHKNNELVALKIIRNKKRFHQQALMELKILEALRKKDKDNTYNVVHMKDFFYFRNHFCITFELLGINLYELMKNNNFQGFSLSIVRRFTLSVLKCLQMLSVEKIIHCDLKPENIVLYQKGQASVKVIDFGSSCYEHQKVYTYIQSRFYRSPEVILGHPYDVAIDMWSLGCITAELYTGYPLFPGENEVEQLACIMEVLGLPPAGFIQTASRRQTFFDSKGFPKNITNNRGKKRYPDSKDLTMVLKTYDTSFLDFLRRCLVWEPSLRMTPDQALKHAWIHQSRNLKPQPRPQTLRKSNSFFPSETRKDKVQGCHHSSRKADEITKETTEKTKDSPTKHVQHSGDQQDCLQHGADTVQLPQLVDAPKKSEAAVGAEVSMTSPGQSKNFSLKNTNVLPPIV
# [10] = target: Glycogen synthase kinase-3 (Homo sapiens, UniProt P49840+P49841); assay type: protein assay
# [11] = target: T3, Dual specificity tyrosine-phosphorylation-regulated kinase 3 (Homo sapiens, UniProt O43781)
# T3 sequence (O43781 whole entry): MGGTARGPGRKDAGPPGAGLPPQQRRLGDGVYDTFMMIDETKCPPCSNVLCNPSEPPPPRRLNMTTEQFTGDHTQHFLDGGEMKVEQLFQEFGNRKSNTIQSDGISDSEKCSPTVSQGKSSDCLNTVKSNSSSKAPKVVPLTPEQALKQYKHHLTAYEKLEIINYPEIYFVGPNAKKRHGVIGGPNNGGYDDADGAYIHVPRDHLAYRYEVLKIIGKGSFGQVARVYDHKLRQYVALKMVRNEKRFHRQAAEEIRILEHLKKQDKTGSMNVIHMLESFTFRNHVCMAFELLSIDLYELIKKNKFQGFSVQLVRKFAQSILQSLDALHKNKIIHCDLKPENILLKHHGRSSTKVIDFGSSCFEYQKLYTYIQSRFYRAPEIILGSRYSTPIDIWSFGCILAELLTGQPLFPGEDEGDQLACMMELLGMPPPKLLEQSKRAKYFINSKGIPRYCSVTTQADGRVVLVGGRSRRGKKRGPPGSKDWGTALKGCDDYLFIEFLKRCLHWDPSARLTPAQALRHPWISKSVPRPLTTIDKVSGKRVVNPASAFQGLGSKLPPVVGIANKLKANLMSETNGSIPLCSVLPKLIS
# Dual specificity protein kinase CLK1, sequence (P49759 whole entry): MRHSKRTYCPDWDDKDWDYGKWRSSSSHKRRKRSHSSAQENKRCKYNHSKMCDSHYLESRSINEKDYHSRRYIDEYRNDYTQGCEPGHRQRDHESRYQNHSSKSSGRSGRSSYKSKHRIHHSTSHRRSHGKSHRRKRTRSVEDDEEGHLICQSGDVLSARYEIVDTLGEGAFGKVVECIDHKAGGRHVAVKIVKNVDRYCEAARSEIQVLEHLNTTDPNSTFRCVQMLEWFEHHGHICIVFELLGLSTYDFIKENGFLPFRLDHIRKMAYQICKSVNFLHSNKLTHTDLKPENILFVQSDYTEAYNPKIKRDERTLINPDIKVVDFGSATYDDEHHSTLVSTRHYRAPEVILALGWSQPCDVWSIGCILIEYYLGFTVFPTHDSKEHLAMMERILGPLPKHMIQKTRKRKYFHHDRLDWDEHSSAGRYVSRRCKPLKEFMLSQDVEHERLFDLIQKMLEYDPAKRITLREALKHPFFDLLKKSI
SMILES,IC50 [1] [µM],IC50 [2],IC50 [3] [µM],IC50 [4],also measured
COC[C@@H](CC(C)C)NC1=N/C(=C\c2ccc3c(c2)CCO3)C(=O)N1,0.0567,0.014 µM,0.0116,0.0716 µM,
COC[C@@H](CC(C)C)NC1=N/C(=C\c2ccc3[nH]ccc3c2)C(=O)N1,,> 10 µM,4.79,> 10 µM,
COC[C@@H](CC(C)C)NC1=N/C(=C\c2ccc3c(c2)OCO3)C(=O)N1,0.001,0.0135 µM,0.005,0.023 µM,
COC[C@@H](CC(C)C)NC1=N/C(=C\c2ccc3[nH]cnc3c2)C(=O)N1C,,0.0021 µM,0.112,,
CCN1C(=O)/C(=C/c2ccc3ncsc3c2)N=C1N[C@@H](COC)CC(C)C,0.2,0.0585 µM,,,IC50 [5]: > 10 µM; IC50 [6]: > 10 µM; IC50 [7]: 1.36 µM; IC50 [8]: 0.165 µM; IC50 [9]: 2.56 µM; IC50 [10]: 7.867 µM
COC[C@@H](CC(C)C)NC1=N/C(=C\c2ccc3ncsc3c2)C(=O)N1C1CCC1,1.42,1.21 µM,5.62,,IC50 [5]: > 10 µM; IC50 [6]: > 10 µM; IC50 [7]: 4.69 µM; IC50 [8]: 0.581 µM; IC50 [11]: 5.32 µM; IC50 [10]: > 10 µM
COC[C@@H](CC(C)C)NC1=N/C(=C\c2ccc3c(cnn3C)c2)C(=O)N1,,0.189 µM,,0.358 µM,
COC[C@@H](CC(C)C)NC1=N/C(=C\c2ccc3nn(C)cc3c2)C(=O)N1C,0.258,0.153 µM,,,
COC[C@@H](CC(C)C)NC1=N/C(=C\c2ccc3nnsc3c2)C(=O)N1,,0.268 µM,,,
COC[C@@H](CC(C)C)NC1=N/C(=C\c2ccc3ncsc3c2)C(=O)N1C,,0.0116 µM and 0.0124 µM,,0.0096 µM and 0.0166 µM,IC50 [5]: > 10 µM; IC50 [6]: > 10 µM; IC50 [9]: 0.525 µM; IC50 [10]: 4.481 µM
COC[C@@H](CC(C)C)NC1=N/C(=C\c2ccc3nc(C)sc3c2)C(=O)N1,,0.0527 µM,,,
COC[C@@H](CC(C)C)NC1=N/C(=C\c2ccc3ncn(C)c3c2)C(=O)N1,0.0382,0.0117 µM,0.0787,,
CN1C(=O)/C(=C/c2ccc3c(c2)OCO3)N=C1N [LEUCETTAMINE B],,,,,IC50 [6]: > 10 µM; IC50 [10]: > 10 µM
COC[C@@H](CC(C)C)NC1=N/C(=C/c2ccc3ncoc3c2)C(=O)N1C,0.0188,0.0163 µM,,,
COC[C@@H](CC(C)C)NC1=N/C(=C\c2ccc3c(c2)OCO3)C(=O)N1C,0.131,0.0771 µM,0.0535,0.0411 µM,
COC[C@@H](CC(C)C)NC1=N/C(=C\c2ccc3ncoc3c2)C(=O)N1,0.0142,,,,
COC[C@@H](CC(C)C)NC1=N/C(=C\c2ccc3c(ccn3C)c2)C(=O)N1,> 10,> 10 µM,,8.17 µM,
COC[C@@H](CC(C)C)NC1=N/C(=C\c2ccc3[nH]ncc3c2)C(=O)N1,0.31,0.245 µM,,0.115 µM,
